Columns and labels:
Experiment in all cases: FRT cell Ussing chamber chloride transport assay
Format in all cases: cell-based
human CFTR mutant S549N = biological target: T1, human CFTR mutant S549N (Homo sapiens, UniProt P13569, S549N); details: FRT cells expressing S549N CFTR
T1 construct: expressed in transfected cells; host or cells: Fisher rat thyroid (FRT) FlpIn cells, pcDNA5/FRT
Text: (§1) DNA cloning: Wild-type CFTR coding region was inserted into pcDNA5/FRT (Invitrogen, San Diego, Calif.) between EcoRV and ApaI.
(§2) Single CFTR gene mutations were introduced into the wild-type CFTR coding sequence by using QuickChange XL site-directed mutagenesis kit (Stratagene, Cambridge, UK). The CFTR coding region as well as its promoter sequence and 3′ untranslated sequence was fully sequenced to confirm the mutagenesis reaction.
(§3) The CFTR gene was stably expressed in Fisher rat thyroid (FRT) cells through FlpIn system. The FRT-FlpIn host cell line was generated by stably transfecting FRT cells with pFRT/lacZeo. The single integration of a FRT site was confirmed by Southern blot. After the mutant CFTR DNA was transfected into the FRT-FlpIn host cell line, the cells were incubate at 37° C. in Coon's modified Ham's F12 containing 10% FBS, 1% Pen/Strep, and 36 ml of Na− Bicarbonate for up to 8 passages under hygromycin selection (200 ug/ml).
(§4) All cells were grown on Costar® Snapwell™ cell culture inserts at maintained at 37° C. prior to recording. The cell culture inserts were mounted into an Ussing chamber (VCC MC8; Physiologic Instruments, Inc., San Diego, Calif.) to record ISC in the voltage-clamp mode (Vhold=0 mV). For FRT cells, the basolateral membrane was permeabilized with 360 μg/ml Nystatin and a basolateral to apical Cl− gradient was established. The basolateral bath solution contained (in mM); 135 NaCl, 1.2 CaCl2, 1.2 MgCl2, 2.4 K2HPO4, 0.6 KHPO4, 10 N-2-hydroxyethylpiperazine-N′-2-ethanesulfonic acid (HEPES), and 10 dextrose (titrated to pH 7.4 with NaOH). The apical NaCl was replaced by equimolar Na+ gluconate (titrated to pH 7.4 with NaOH). For HBE cells, the ISC was measured in the presence of a basolateral to apical Cl− gradient. The normal Cl− solution contained (in mM) 145 NaCl, 3.3 K2HPO4, 1.2 MgCl2, 1.2 CaCl2, 10 Glucose, 10 HEPES (pH adjusted to 7.35 with NaOH) and the low Cl− solution contained (in mM) 145 NaGluconate, 1.2 MgCl2, 1.2 CaCl2, 10 glucose, 10 HEPES (pH adjusted to 7.35 with NaOH). All recordings were digitally acquired using a Acquire and Analyze software (version 2; Physiologic Instruments, Inc. San Diego, Calif.).
(§5) The 10 μM forskolin stimulated response in FRT cell expressing different mutant CFTR forms or in HBE cells isolated from CF patients was normalized to the 10 μM forskolin-stimulated response in FRT cells expressing wild-type CFTR or in HBE isolated from non-CF individuals and expressed as % wild-type CFTR. In HBE, amiloride was added prior to forskolin application to block the epithelial Na+ channel.

human CFTR mutant G970R = biological target: T2, human CFTR mutant G970R (Homo sapiens, UniProt P13569, G970R); details: FRT cells expressing G970R CFTR
T2 construct: expressed in transfected cells; host or cells: Fisher rat thyroid (FRT) FlpIn cells, pcDNA5/FRT
T2 sequence (P13569 whole entry G970R): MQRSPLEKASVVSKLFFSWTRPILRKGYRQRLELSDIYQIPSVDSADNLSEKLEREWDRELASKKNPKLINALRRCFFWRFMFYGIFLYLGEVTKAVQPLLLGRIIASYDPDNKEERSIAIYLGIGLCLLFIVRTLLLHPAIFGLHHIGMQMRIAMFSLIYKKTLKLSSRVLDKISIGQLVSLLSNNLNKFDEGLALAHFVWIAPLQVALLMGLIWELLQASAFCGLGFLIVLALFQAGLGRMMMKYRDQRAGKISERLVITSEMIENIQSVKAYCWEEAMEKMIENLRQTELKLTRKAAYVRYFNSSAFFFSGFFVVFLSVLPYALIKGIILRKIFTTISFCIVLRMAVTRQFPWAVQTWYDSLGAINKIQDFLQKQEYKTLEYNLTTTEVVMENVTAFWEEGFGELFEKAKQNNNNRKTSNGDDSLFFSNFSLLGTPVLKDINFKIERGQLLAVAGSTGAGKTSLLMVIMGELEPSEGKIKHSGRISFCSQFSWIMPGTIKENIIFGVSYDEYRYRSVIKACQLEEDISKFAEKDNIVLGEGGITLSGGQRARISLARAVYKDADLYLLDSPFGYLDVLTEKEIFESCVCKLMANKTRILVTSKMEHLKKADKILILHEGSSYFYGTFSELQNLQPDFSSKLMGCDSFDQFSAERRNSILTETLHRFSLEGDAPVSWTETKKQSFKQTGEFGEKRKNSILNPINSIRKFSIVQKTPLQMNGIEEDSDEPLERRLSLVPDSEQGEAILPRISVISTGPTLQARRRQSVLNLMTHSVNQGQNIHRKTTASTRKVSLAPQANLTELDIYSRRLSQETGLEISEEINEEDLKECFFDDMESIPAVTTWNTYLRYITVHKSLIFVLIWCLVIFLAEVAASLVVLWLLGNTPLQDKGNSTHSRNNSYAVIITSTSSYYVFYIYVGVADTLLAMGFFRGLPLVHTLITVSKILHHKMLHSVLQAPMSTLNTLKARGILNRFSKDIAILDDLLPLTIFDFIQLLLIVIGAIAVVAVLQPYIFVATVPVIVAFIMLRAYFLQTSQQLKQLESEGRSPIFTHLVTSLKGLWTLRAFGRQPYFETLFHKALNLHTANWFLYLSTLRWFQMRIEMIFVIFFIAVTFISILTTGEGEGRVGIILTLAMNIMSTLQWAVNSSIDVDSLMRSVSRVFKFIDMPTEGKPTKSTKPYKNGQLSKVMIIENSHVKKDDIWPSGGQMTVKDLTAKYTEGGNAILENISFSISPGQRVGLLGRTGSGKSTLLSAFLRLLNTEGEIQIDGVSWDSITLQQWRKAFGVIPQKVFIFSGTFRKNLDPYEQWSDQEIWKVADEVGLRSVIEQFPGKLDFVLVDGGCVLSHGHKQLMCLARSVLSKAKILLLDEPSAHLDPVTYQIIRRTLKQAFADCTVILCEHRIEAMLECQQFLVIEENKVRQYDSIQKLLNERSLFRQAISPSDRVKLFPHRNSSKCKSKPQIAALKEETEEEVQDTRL
Text: as §1, §2, §3, §4, §5

human CFTR mutant S1235R = biological target: T3, human CFTR mutant S1235R (Homo sapiens, UniProt P13569, S1235R); details: FRT cells expressing S1235R CFTR
T3 construct: expressed in transfected cells; host or cells: Fisher rat thyroid (FRT) FlpIn cells, pcDNA5/FRT
T3 sequence (P13569 whole entry S1235R): as the sequence (P13569 whole entry G970R) above, with R970G, S1235R counted along it
Text: as §1, §2, §3, §4, §5

human CFTR mutant R347H = biological target: T4, human CFTR mutant R347H (Homo sapiens, UniProt P13569, R347H); details: FRT cells expressing R347H CFTR
T4 construct: expressed in transfected cells; host or cells: Fisher rat thyroid (FRT) FlpIn cells, pcDNA5/FRT
T4 sequence (P13569 whole entry R347H): as the sequence (P13569 whole entry G970R) above, with R347H, R970G counted along it
Text: as §1, §2, §3, §4, §5

human CFTR mutant G1349D = biological target: T5, human CFTR mutant G1349D (Homo sapiens, UniProt P13569, G1349D); details: FRT cells expressing G1349D CFTR
T5 construct: expressed in transfected cells; host or cells: Fisher rat thyroid (FRT) FlpIn cells, pcDNA5/FRT
T5 sequence (P13569 whole entry G1349D): as the sequence (P13569 whole entry G970R) above, with R970G, G1349D counted along it
Text: as §1, §2, §3, §4, §5

human CFTR mutant G178R = biological target: T6, human CFTR mutant G178R (Homo sapiens, UniProt P13569, G178R); details: FRT cells expressing G178R CFTR
T6 construct: expressed in transfected cells; host or cells: Fisher rat thyroid (FRT) FlpIn cells, pcDNA5/FRT
T6 sequence (P13569 whole entry G178R): as the sequence (P13569 whole entry G970R) above, with G178R, R970G counted along it
Text: as §1, §2, §3, §4, §5

human CFTR mutant R352Q = biological target: T7, human CFTR mutant R352Q (Homo sapiens, UniProt P13569, R352Q); details: FRT cells expressing R352Q CFTR
T7 construct: expressed in transfected cells; host or cells: Fisher rat thyroid (FRT) FlpIn cells, pcDNA5/FRT
T7 sequence (P13569 whole entry R352Q): as the sequence (P13569 whole entry G970R) above, with R352Q, R970G counted along it
Text: as §1, §2, §3, §4, §5

human CFTR mutant S1251N = biological target: T8, human CFTR mutant S1251N (Homo sapiens, UniProt P13569, S1251N); details: FRT cells expressing S1251N CFTR
T8 construct: expressed in transfected cells; host or cells: Fisher rat thyroid (FRT) FlpIn cells, pcDNA5/FRT
T8 sequence (P13569 whole entry S1251N): as the sequence (P13569 whole entry G970R) above, with R970G, S1251N counted along it
Text: as §1, §2, §3, §4, §5

human CFTR mutant P67L = biological target: T9, human CFTR mutant P67L (Homo sapiens, UniProt P13569, P67L); details: FRT cells expressing P67L CFTR
T9 construct: expressed in transfected cells; host or cells: Fisher rat thyroid (FRT) FlpIn cells, pcDNA5/FRT
T9 sequence (P13569 whole entry P67L): as the sequence (P13569 whole entry G970R) above, with P67L, R970G counted along it
Text: as §1, §2, §3, §4, §5

human CFTR mutant G551S = biological target: T10, human CFTR mutant G551S (Homo sapiens, UniProt P13569, G551S); details: FRT cells expressing G551S CFTR
T10 construct: expressed in transfected cells; host or cells: Fisher rat thyroid (FRT) FlpIn cells, pcDNA5/FRT
T10 sequence (P13569 whole entry G551S): as the sequence (P13569 whole entry G970R) above, with G551S, R970G counted along it
Text: as §1, §2, §3, §4, §5

human CFTR mutant S945L = biological target: T11, human CFTR mutant S945L (Homo sapiens, UniProt P13569, S945L); details: FRT cells expressing S945L CFTR
T11 construct: expressed in transfected cells; host or cells: Fisher rat thyroid (FRT) FlpIn cells, pcDNA5/FRT
T11 sequence (P13569 whole entry S945L): as the sequence (P13569 whole entry G970R) above, with S945L, R970G counted along it
Text: as §1, §2, §3, §4, §5

human CFTR mutant L206W = biological target: T12, human CFTR mutant L206W (Homo sapiens, UniProt P13569, L206W); details: FRT cells expressing L206W CFTR
T12 construct: expressed in transfected cells; host or cells: Fisher rat thyroid (FRT) FlpIn cells, pcDNA5/FRT
T12 sequence (P13569 whole entry L206W): as the sequence (P13569 whole entry G970R) above, with L206W, R970G counted along it
Text: as §1, §2, §3, §4, §5

human CFTR mutant D110E = biological target: T13, human CFTR mutant D110E (Homo sapiens, UniProt P13569, D110E); details: FRT cells expressing D110E CFTR
T13 construct: expressed in transfected cells; host or cells: Fisher rat thyroid (FRT) FlpIn cells, pcDNA5/FRT
T13 sequence (P13569 whole entry D110E): as the sequence (P13569 whole entry G970R) above, with D110E, R970G counted along it
Text: as §1, §2, §3, §4, §5

T1 sequence (P13569 whole entry S549N): as the sequence (P13569 whole entry G970R) above, with S549N, R970G counted along it

## CC(C)(C)c1cc(C(C)(C)C)c(NC(=O)c2c[nH]c3ccccc3c2=O)cc1O [Compound 1, N-[2,4-bis(1,1-dimethylethyl)-5-hydroxyphenyl]-1,4-dihydro-4-oxoquinoline-3-carboxamide]
Human CFTR mutant S549N
  increase in chloride transport, relative to baseline chloride transport: greater than 10 fold
Human CFTR mutant G970R
  increase in chloride transport, relative to baseline chloride transport: greater than 10 fold
Human CFTR mutant S1235R
  increase in chloride transport, relative to baseline chloride transport: greater than or equal to 10%
Human CFTR mutant R347H
  increase in chloride transport, relative to baseline chloride transport: greater than or equal to 10%
Human CFTR mutant G1349D
  increase in chloride transport, relative to baseline chloride transport: greater than 10 fold
Human CFTR mutant G178R
  increase in chloride transport, relative to baseline chloride transport: greater than 10 fold
Human CFTR mutant R352Q
  increase in chloride transport, relative to baseline chloride transport: greater than or equal to 10%
Human CFTR mutant S1251N
  increase in chloride transport, relative to baseline chloride transport: greater than 10 fold
Human CFTR mutant P67L
  increase in chloride transport, relative to baseline chloride transport: greater than or equal to 10%
Human CFTR mutant G551S
  increase in chloride transport, relative to baseline chloride transport: greater than 10 fold
Human CFTR mutant S945L
  increase in chloride transport, relative to baseline chloride transport: greater than or equal to 10%
Human CFTR mutant L206W
  increase in chloride transport, relative to baseline chloride transport: greater than or equal to 10%
Human CFTR mutant D110E
  increase in chloride transport, relative to baseline chloride transport: greater than or equal to 10%
